Assay results published in patent US9718781B2, “Methods and compounds for treating proliferative disorders and viral infections” (University College Dublin, National University of Ireland, …, priority 2012, dated 2017).
Read-outs that look alike come from different tables or passages of the source.

Biological target: T1, TPβ (Homo sapiens, UniProt P21731)
T1 construct: expressed in transfected cells
Assay: U46619-induced [Ca2+]i mobilization in HEK.TPβ cells
Assay type: cell-based
Conditions: for remaining activity at 1 µM / remaining activity at 10 µM: % of agonist-induced response in vehicle-treated cells; for remaining activity at 1 µM: read-out: Percentage of Control, TPβ, 1 μM; for remaining activity at 10 µM: antagonist 10 μM, read-out: Percentage of Control, TPβ, 10 μM
In short: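 Fluo-4-loaded (3 μM, 1 h, 25° C.) HEK293 TPβ cells in KREBs-HEPES pH 7.4, pre-incubated 10 min with test compound, then stimulated with 1 μM U46619. Fluorescence at 520 nm followed for 75 s, calibrated by Fmax (2% Triton X100) and Fmin (1 mM EGTA).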

[1] = side-by-side comparison, n=6, Table 2.6, read-out: IC50 values for inhibition of U46619-mediated [Ca2+]i, TPβ

T1 sequence (P21731 1-407 isoform P21731-2): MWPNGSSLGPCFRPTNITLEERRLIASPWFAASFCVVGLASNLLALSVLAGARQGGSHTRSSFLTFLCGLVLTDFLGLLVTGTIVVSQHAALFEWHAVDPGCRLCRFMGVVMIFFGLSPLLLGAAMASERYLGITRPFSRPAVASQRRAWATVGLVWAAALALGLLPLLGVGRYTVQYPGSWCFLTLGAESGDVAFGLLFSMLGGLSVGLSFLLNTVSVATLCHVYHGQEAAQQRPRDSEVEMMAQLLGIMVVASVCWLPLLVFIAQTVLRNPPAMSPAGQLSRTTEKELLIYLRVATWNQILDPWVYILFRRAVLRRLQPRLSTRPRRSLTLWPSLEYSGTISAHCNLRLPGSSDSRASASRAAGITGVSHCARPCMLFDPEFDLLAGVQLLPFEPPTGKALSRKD

| SMILES | activity class in HEK.TPβ cells (antagonist 1 μM, 1 μM U46619) | remaining activity at 1 µM (antagonist 1 μM, 1 μM U46619) | remaining activity at 10 µM (1 μM U46619) | IC50 [1] | inhibition of U46619-mediated responses (used at 0.5, HEK.TPβ cells) | reduction of U46619-mediated calcium mobilization responses (1 & 10 μM, HEK.TPβ cells) | IC50 (HEK.TPβ cells, 1 μM U46619, Table 2, read-out: IC50 data for U46619-mediated [Ca2+]i mobilization, TPβ) |
| --- | --- | --- | --- | --- | --- | --- | --- |
| COc1ccc(-c2cccc(Oc3ccc(C#N)cc3S(=O)(=O)NC(=O)NC(C)(C)C)c2)cc1 [NTP4, N-(tert-butylcarbamoyl)-5-cyano-2-((4′-methoxy-[1,1′-biphenyl]-3-yl)oxy)benzenesulfonamide] | ACTIVE | 22.5 ± 3.7% | 10.2 ± 0.95% | 60.4 ± 8 nM | greater than 50% | – | – |
| COc1ccc(-c2cccc(Oc3ccc([N+](=O)[O-])cc3S(=O)(=O)NC(=O)NC(C)(C)C)c2)cc1 [TP20, N-(tert-butylcarbamoyl)-2-((4′-methoxy-[1,1′-biphenyl]-3-yl)oxy)-5-nitrobenzene-sulfonamide] | – | 12.6 ± 1.46% | 9.96 ± 1.7% | 9.61 ± 1.46 nM | – | approx. 90% | 7.33 nM |
